# Values quoted from earlier work as cited in patent publication US20080057002A1, “Non-aqueous compositions containing urea and allantoin and methods for preparing same” (priority 2006, published 2008).
# Details: expressed in g/100 g solvent @25 degree. C.
smiles,measurement,setting,value
"NC(=O)NC1NC(=O)NC1=O (stereo not drawn) [allantoin, (2,5-dioxo-4-imidazolidinyl) urea]",solubility of allantoin in ethanol,ethanol,< 0.1%
same,solubility of allantoin in propylene glycol,propylene glycol,< 0.1%
same,solubility of allantoin in water,water,0.45%
